Assay results: patent US20250367209A1 (SOUTHERN RESEARCH INSTITUTE, priority 2022, published 2025)
“Also recorded” adds a separate entry of the source.

Legend:
[1] = tested on: primary rat neurons; assay: MAP2 ICC assay of Aβ-induced neurite degeneration; type: cell-based; conditions: compound 0.3, 3 or 15 μM, 90-minute pretreatment, 2.5 μM Aβ
Excerpt: (§1) Primary neuron cultures: All animal procedures were approved by the Institutional Animal Care and Use Committee at the University of Alabama at Birmingham (UAB). As before (Rush, et al. (2020) Neurobiol Dis 134, 104668; Voskobiynyk, et al. (2020) eLife 9, e57354), primary rat neurons were isolated from timed-pregnant Sprague-Dawley rats. Briefly, dams were euthanized with isoflurane anesthesia asphyxiation, and hippocampal tissue was isolated from E19 embryos in Hibernate E, then digested in papain for 10 minutes at 37° C. Neurons were triturated into a single cell suspension in Neurobasal supplemented with B-27, L-Glutamine, and 10% FBS, then plated in 96-well plates coated with PDL and laminin at 30,000 neurons per well in 200 uL medium or in 24-well coated plates with or without coverslips at 50,000 per well. Cultures were maintained at 37° C. with 5% CO2. Twenty-four hours after plating (DIV1), two 50% media changes with Neurobasal plus B-27 and L-Glutamine without FBS, and 5 μM cytosine β-D-arabinofuranoside was added to prevent glial proliferation. […]
For the MAP2 ICC assay, neurons were fixed in 4% PFA and 4% sucrose at 37° C. for 30 minutes, then washed 3×5 minutes in PBS. […] Intact neurite length was measured in an unbiased, automated manner using Harmony software, averaged from four images from each well. […]

[2] = molecular target: 97 kinases; assay: Eurofins DiscoverX ScanEDGE kinase panel; type: biochemical; conditions: compound no. 69 at 3 μM; saracatinib stock 30 μM = 1000× testing concentration; activity = <35% of control
Excerpt: 69 and compound no. […] Since Fyn was not included in that panel, a custom panel was completed for Fyn kinase activity.

[3] = molecular target: Tau-PxxP5/6 (Homo sapiens (Human), UniProt P10636); assay: Isothermal titration calorimetry, Tau-PxxP5/6 peptide; type: binding
Description: ITC experiments were performed on an Auto-iTC200 system (Malvern Instruments, Westborough, MA). ITC sample cell contained ˜120 μM full-length Tau, FynSH3, or Tau-PxxP5/6 (titrand), and the syringe contained 1 mM compound no. 69 (titrant). Each titration experiment consisted of 16 injections of […] of titrant into titrand at 25° C. Background mixing heat was determined from injections of titrant into the same buffer without titrand. Data analysis was performed using the built-in analysis module in Origin 7 provided by the ITC manufacturer. The normalized titration heat was fitted to a “one set of sites” model to determine the best-fit binding parameters.

[4] = molecular target: Tau-FynSH3 interaction (Homo sapiens (Human), UniProt P10636); assay: Tau-Flag PLA, Tau-FynSH3; type: cell-based
Description: (§2) Tau-Flag PLA for Tau-SH3 interactions: To clone the SH3 constructs, a C-terminal Flag tag was added to the Tau construct using PCR, then the Tau sequence was replaced with the desired SH3 domain using In-Fusion HD cloning kit (Takara Bio). Next, an N-terminal GST tag was added to help expression using In-Fusion, resulting in GST-SH3-Flag plasmids. As a negative control, restriction enzymes were used to remove the FynSH3 from the FynSH3 construct, resulting in GST-Flag. All sequences were confirmed with Sanger sequencing, and expression in HEK-293 cells was verified by western blot and immunocytochemistry. Plating and experimental timeline was the same as above. Cells were transfected with 125 ng of Tau-mKate2 and 500 ng SH3 plasmid with 1.5 μL Fugene. compound no. 69 was applied to final concentration 15 μM. For Tau-SH3 PLA, we used Dako Tau (1:1000) and Flag (1:1000) primary antibodies.

[5] = molecular target: Tau-LckSH3 interaction (Homo sapiens (Human), UniProt P10636); assay: Tau-Flag PLA, Tau-LckSH3; type: cell-based; conditions: 15 μM, HEK-293 cells
Description: as §2

[6] = molecular target: Tau-BIN1SH3 interaction (Homo sapiens (Human), UniProt P10636); assay: Tau-Flag PLA, Tau-BIN1SH3; type: cell-based; conditions: 15 μM, HEK-293 cells
Description: as §2

[7] = tested on: primary neurons; assay: Multi-electrode array, Aβ-induced network hyperexcitability; type: cell-based, rat; conditions: one hour preincubation, 500 nM Aβ oligomers, four hours
Excerpt: as §1, with “CO2.” for “CO2. Twenty-four hours after plating (DIV1), two 50% media changes with Neurobasal plus B-27 and L-Glutamine without FBS, and 5 μM cytosine β-D-arabinofuranoside was added to prevent glial proliferation.”
Multi-electrode arrays: As in a prior study (Voskobiynyk, et al. (2020) eLife 9, e57354), 30,000 neurons were plated per well in a 48-well MEA plate. […] 69 for one hour, then 500 nM Aβ oligomers was applied and neurons were returned to the incubator for four hours before being recorded for 20 more minutes. […] Mean baseline frequency for each well was calculated from unit frequencies, then each unit in the post-treatment recording was normalized to the baseline average of its well. […]

Tau-LckSH3 interaction, sequence (P10636 other isoform, or with tags, fused parts or gaps): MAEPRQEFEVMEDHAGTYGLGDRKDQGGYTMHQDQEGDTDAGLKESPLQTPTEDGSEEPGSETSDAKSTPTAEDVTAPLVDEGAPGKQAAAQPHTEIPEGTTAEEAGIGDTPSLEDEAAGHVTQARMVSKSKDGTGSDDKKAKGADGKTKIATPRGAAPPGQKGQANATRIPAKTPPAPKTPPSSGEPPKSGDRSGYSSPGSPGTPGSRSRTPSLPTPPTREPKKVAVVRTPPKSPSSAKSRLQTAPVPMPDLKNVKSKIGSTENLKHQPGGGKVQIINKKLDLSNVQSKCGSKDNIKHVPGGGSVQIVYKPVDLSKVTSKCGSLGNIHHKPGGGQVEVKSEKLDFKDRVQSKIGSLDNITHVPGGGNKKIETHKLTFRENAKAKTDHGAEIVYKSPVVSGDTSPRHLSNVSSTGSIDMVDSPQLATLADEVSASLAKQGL
Tau-FynSH3 interaction, sequence (P10636 other isoform, or with tags, fused parts or gaps): as above
Tau-BIN1SH3 interaction, sequence (P10636 other isoform, or with tags, fused parts or gaps): as above

Row | SMILES | Aβ-induced neurite degeneration, MAP2 assay [1] | kinase inhibition, panel of 97 kinases [2] | interaction with Tau-PxxP5/6 peptide, ITC [3] | Tau-FynSH3 interaction, Tau-Flag PLA (in words) ([4]; 15 μM, HEK-293 cells) | inhibition at 15 µM ([4]; HEK293, HEK-293 cells) [%] | Tau-LckSH3 interaction, Tau-Flag PLA [5] | Tau-BIN1SH3 interaction, Tau-Flag PLA [6] | Aβ-induced network hyperexcitability, multi-electrode array [7]
1 | O=C(CCN1C(=O)CSc2ccccc21)Nc1nnc(-c2ccccn2)[nH]1 [compound no. 55] | prevented Aβ-induced neurite degeneration; also recorded: ameliorates Aβ-induced neurite degeneration | – | – | – | – | – | – | –
2 | O=C(CN1CCOc2ccccc21)Nc1nnc(-c2ccccn2)[nH]1 [compound no. 69] | prevented; also recorded: ameliorates Aβ-induced neurite degeneration | did not inhibit Fyn or any of the 97 kinases; also recorded: is not a kinase inhibitor | No interaction was observed | inhibited | 37 | strongly inhibited; also recorded: inhibits Tau-LckSH3 interaction | moderately inhibited; also recorded: inhibits Tau-BIN1SH3 interaction | prevented Aβ-induced network8hyperexcitability at both 3 and 15 μM; also recorded: ameliorates Aβ-induced network hyperexcitability
